From paper PMC10327353 (Breast Cancer Research : BCR, 2023)
Values joined by “and” are separate entries in the source; they are usually repeats but may differ in a detail not shown here. Equal entries are not always repeated.

Test: Phase 1 study: safety and tolerability
Format: in vivo
Description: The maximum tolerated dose (MTD) of DZD1516 was defined based on safety data and the Bayesian optimal interval (BOIN) design (Additional file 1). The definition of DLT is provided in Additional file 1.
The AE grading was assessed according to the NCI-Common Terminology Criteria for Adverse Events (CTCAE) (version 5.0) and was monitored until 28 days after the last dose.
Eligible patients received single oral dosing of DZD1516 on Cycle 0 Day 1 (C0D1), followed by a 7-day washout. Twice daily oral dosing (bid) of DZD1516 was commenced from C1D1 in a continuous 21-day cycle until disease progression, unacceptable toxicity, or withdrawal of consent. All doses were taken under fed conditions (within 30 minutes after a meal).
Planned dosing consisted of 25, 50, 100, 200, 300, and 400 mg. Each dose escalation cohort will comprise a minimum of three and a maximum of six evaluable patients (except only one patient in the starting dose cohort). The maximum tolerated dose of DZD1516 was defined according to safety data and the Bayesian optimal interval (BOIN) design. Dose escalation/de-escalation rule with target toxicity rate for the MTD is 0.30 with interval of (0.20, 0.33).
DLTs were any adverse event (AE) not clearly attributable to the patient’s disease, including ≥ grade 4 hematological toxicities present for ≥ 4 days, grade 3 thrombocytopenia with bleeding, or grade 4 thrombocytopenia lasting for > 5 days, ≥ grade 3 non-hematological toxicities that is dose-limiting in the judgment of the investigators. Any other toxicity that is greater than that at baseline, is clinically significant or unacceptable, and is judged to be a DLT by the SRC. Exceptions included alopecia of any grade and isolated grade 3 laboratory change without clinical sequelae or clinical significance.
Safety evaluations were conducted at screening, on Day 1, 8, and 15 of Cycle 1, on Day 1 of each subsequent treatment cycle, at the end-of-treatment visit, and clinically indicated. Safety assessments included clinical laboratory measurements (hematology, chemistry, coagulation, and urinalysis), electrocardiogram (ECG), Echocardiogram/MUGA scan, ECOG performance status, vital signs, and physical examinations.

SMILES: COc1cc(O[C@H]2CCN(C)CC2(F)F)c2c(Nc3ccc(Oc4ccn5ncnc5c4)c(C)c3)ncnc2c1 [DZD1516]
- Decreased appetite, ≥ Grade 3 (300 mg (N = 4)): 0 (0.0) n (%)
- Dizziness, Any Grade (300 mg (N = 4)): 1 (25.0) n (%)
- Dizziness, ≥ Grade 3 (300 mg (N = 4)): 1 (25.0) n (%)
- Drug-related TEAE: Grade 3 (300 mg (N = 4)): 2 (50.0) n (%)
- Drug-related TEAE: Leading to death (300 mg (N = 4)): 0 (0.0) n (%)
- Drug-related TEAE: Leading to dose reduction (300 mg (N = 4)): 3 (75.0) n (%)
- Drug-related TEAE: Leading to treatment discontinuation (300 mg (N = 4)): 0 (0.0) n (%)
- Drug-related TEAE: Leading to treatment interruption (300 mg (N = 4)): 2 (50.0) n (%)
- Drug-related TEAE: SAE (300 mg (N = 4)): 0 (0.0) n (%)
- Fatigue, Any Grade (300 mg (N = 4)): 1 (25.0) n (%)
- Fatigue, ≥ Grade 3 (300 mg (N = 4)): 1 (25.0) n (%)
- Gastrointestinal disorders, Any Grade (300 mg (N = 4)): 4 (100.0) n (%)
- Gastrointestinal disorders, ≥ Grade 3 (300 mg (N = 4)): 1 (25.0) n (%)
- General disorders and administration site conditions, Any Grade (300 mg (N = 4)): 3 (75.0) n (%)
- General disorders and administration site conditions, ≥ Grade 3 (300 mg (N = 4)): 2 (50.0) n (%)
- Headache, Any Grade (300 mg (N = 4)): 4 (100.0) n (%)
- Headache, ≥ Grade 3 (300 mg (N = 4)): 0 (0.0) n (%)
- Hemoglobin decreased, Any Grade (300 mg (N = 4)): 0 (0.0) n (%)
- Hemoglobin decreased, ≥ Grade 3 (300 mg (N = 4)): 0 (0.0) n (%)
- Investigations, Any Grade (300 mg (N = 4)): 1 (25.0) n (%)
- Investigations, ≥ Grade 3 (300 mg (N = 4)): 0 (0.0) n (%)
- Lipase increased, Any Grade (300 mg (N = 4)): 0 (0.0) n (%)
- Lipase increased, ≥ Grade 3 (300 mg (N = 4)): 0 (0.0) n (%)
- Malaise, Any Grade (300 mg (N = 4)): 1 (25.0) n (%)
- Malaise, ≥ Grade 3 (300 mg (N = 4)): 1 (25.0) n (%)
- Metabolism and nutrition disorders, Any Grade (300 mg (N = 4)): 3 (75.0) n (%)
- Metabolism and nutrition disorders, ≥ Grade 3 (300 mg (N = 4)): 0 (0.0) n (%)
- Musculoskeletal and connective tissue disorders, Any Grade (300 mg (N = 4)): 3 (75.0) n (%)
- Musculoskeletal and connective tissue disorders, ≥ Grade 3 (300 mg (N = 4)): 1 (25.0) n (%)
- Nausea, Any Grade (300 mg (N = 4)): 4 (100.0) n (%)
- Nausea, ≥ Grade 3 (300 mg (N = 4)): 1 (25.0) n (%)
- Nervous system disorders, Any Grade (300 mg (N = 4)): 4 (100.0) n (%)
- Nervous system disorders, ≥ Grade 3 (300 mg (N = 4)): 2 (50.0) n (%)
- Participants with any TEAE, Any Grade (300 mg (N = 4)): 4 (100.0) n (%)
- Participants with any TEAE, ≥ Grade 3 (300 mg (N = 4)): 3 (75.0) n (%)
- Platelet count decreased, Any Grade (300 mg (N = 4)): 0 (0.0) n (%)
- Platelet count decreased, ≥ Grade 3 (300 mg (N = 4)): 0 (0.0) n (%)
- Proteinuria, Any Grade (300 mg (N = 4)): 1 (25.0) n (%)
- Proteinuria, ≥ Grade 3 (300 mg (N = 4)): 0 (0.0) n (%)
- Renal and urinary disorders, Any Grade (300 mg (N = 4)): 1 (25.0) n (%)
- Renal and urinary disorders, ≥ Grade 3 (300 mg (N = 4)): 0 (0.0) n (%)
- Subjects with any TEAE (300 mg (N = 4)): 4 (100.0) n (%)
- Subjects with any drug-related TEAE (300 mg (N = 4)): 4 (100.0) n (%)
- Vomiting, Any Grade (300 mg (N = 4)): 3 (75.0) n (%)
- Vomiting, ≥ Grade 3 (300 mg (N = 4)): 1 (25.0) n (%)
- White blood cell count decreased, Any Grade (300 mg (N = 4)): 0 (0.0) n (%)
- White blood cell count decreased, ≥ Grade 3 (300 mg (N = 4)): 0 (0.0) n (%)
- diarrhea (300 mg cohort): A single case of grade 2 diarrhea
- dose-limiting toxicities (DLTs) (300 mg cohort): two out of four patients experienced DLTs
- dose-limiting toxicity (DLT) (25–200 mg cohorts): no dose-limiting toxicity (DLT) observed
- diarrhea or skin rash (MTD (250 mg) or lower doses): No diarrhea or skin rash of any grade was observed
- Alanine aminotransferase increased, Any Grade (Total (N = 23)): 3 (13.0) n (%)
- Alanine aminotransferase increased, ≥ Grade 3 (Total (N = 23)): 0 (0.0) n (%)
- Anemia, Any Grade (Total (N = 23)): 3 (13.0) n (%)
- Anemia, ≥ Grade 3 (Total (N = 23)): 0 (0.0) n (%)
- Any TEAE: Grade 3 (Total (N = 23)): 6 n (%) and 6 (26.1) n (%)
- Any TEAE: Leading to death (Total (N = 23)): 0 (0.0) n (%)
- Any TEAE: Leading to dose reduction (Total (N = 23)): 3 n (%) and 3 (13.0) n (%)
- Any TEAE: Leading to treatment discontinuation (Total (N = 23)): 1 (4.3) n (%)
- Any TEAE: Leading to treatment interruption (Total (N = 23)): 5 n (%) and 5 (21.7) n (%)
- Any TEAE: SAE (Total (N = 23)): 2 (8.7) n (%)
- Aspartate aminotransferase increased, Any Grade (Total (N = 23)): 5 (21.7) n (%)
- Aspartate aminotransferase increased, ≥ Grade 3 (Total (N = 23)): 0 (0.0) n (%)
- Blood and lymphatic system disorders, Any Grade (Total (N = 23)): 3 (13.0) n (%)
- Blood and lymphatic system disorders, ≥ Grade 3 (Total (N = 23)): 0 (0.0) n (%)
- Blood bilirubin increased, Any Grade (Total (N = 23)): 4 (17.4) n (%)
- Blood bilirubin increased, ≥ Grade 3 (Total (N = 23)): 0 (0.0) n (%)
- Cardiac disorders, Any Grade (Total (N = 23)): 3 (13.0) n (%)
- Cardiac disorders, ≥ Grade 3 (Total (N = 23)): 0 (0.0) n (%)
- Constipation, Any Grade (Total (N = 23)): 3 (13.0) n (%)
- Constipation, ≥ Grade 3 (Total (N = 23)): 0 (0.0) n (%)
- Decreased appetite, Any Grade (Total (N = 23)): 4 (17.4) n (%)
- Decreased appetite, ≥ Grade 3 (Total (N = 23)): 0 (0.0) n (%)
- Dizziness, Any Grade (Total (N = 23)): 3 (13.0) n (%)
- Dizziness, ≥ Grade 3 (Total (N = 23)): 1 (4.3) n (%)
- Drug-related TEAE: Grade 3 (Total (N = 23)): 4 n (%) and 4 (17.4) n (%)
- Drug-related TEAE: Leading to death (Total (N = 23)): 0 (0.0) n (%)
- Drug-related TEAE: Leading to dose reduction (Total (N = 23)): 3 (13.0) n (%)
- Drug-related TEAE: Leading to treatment discontinuation (Total (N = 23)): 0 (0.0) n (%)
- Drug-related TEAE: Leading to treatment interruption (Total (N = 23)): 3 (13.0) n (%)
- Drug-related TEAE: SAE (Total (N = 23)): 1 (4.3) n (%)
- Fatigue, Any Grade (Total (N = 23)): 4 (17.4) n (%)
- Fatigue, ≥ Grade 3 (Total (N = 23)): 1 (4.3) n (%)
- Gastrointestinal disorders, Any Grade (Total (N = 23)): 10 (43.5) n (%)
- Gastrointestinal disorders, ≥ Grade 3 (Total (N = 23)): 3 (13.0) n (%)
- General disorders and administration site conditions, Any Grade (Total (N = 23)): 8 (34.8) n (%)
- General disorders and administration site conditions, ≥ Grade 3 (Total (N = 23)): 2 (8.7) n (%)
- Headache, Any Grade (Total (N = 23)): 10 (43.5) n (%)
- Headache, ≥ Grade 3 (Total (N = 23)): 0 (0.0) n (%)
- Hemoglobin decreased, Any Grade (Total (N = 23)): 7 (30.4) n (%)
- Hemoglobin decreased, ≥ Grade 3 (Total (N = 23)): 0 (0.0) n (%)
- Investigations, Any Grade (Total (N = 23)): 14 (60.9) n (%)
- Investigations, ≥ Grade 3 (Total (N = 23)): 2 (8.7) n (%)
- Lipase increased, Any Grade (Total (N = 23)): 3 (13.0) n (%)
- Lipase increased, ≥ Grade 3 (Total (N = 23)): 0 (0.0) n (%)
- Malaise, Any Grade (Total (N = 23)): 3 (13.0) n (%)
- Malaise, ≥ Grade 3 (Total (N = 23)): 1 (4.3) n (%)
- Metabolism and nutrition disorders, Any Grade (Total (N = 23)): 11 (47.8) n (%)
- Metabolism and nutrition disorders, ≥ Grade 3 (Total (N = 23)): 0 (0.0) n (%)
- Musculoskeletal and connective tissue disorders, Any Grade (Total (N = 23)): 7 (30.4) n (%)
- Musculoskeletal and connective tissue disorders, ≥ Grade 3 (Total (N = 23)): 2 (8.7) n (%)
- Nausea, Any Grade (Total (N = 23)): 6 (26.1) n (%)
- Nausea, ≥ Grade 3 (Total (N = 23)): 1 (4.3) n (%)
- Nervous system disorders, Any Grade (Total (N = 23)): 14 (60.9) n (%)
- Nervous system disorders, ≥ Grade 3 (Total (N = 23)): 2 (8.7) n (%)
- Participants with any TEAE, Any Grade (Total (N = 23)): 22 (95.7) n (%)
- Participants with any TEAE, ≥ Grade 3 (Total (N = 23)): 6 (26.1) n (%)
- Platelet count decreased, Any Grade (Total (N = 23)): 3 (13.0) n (%)
- Platelet count decreased, ≥ Grade 3 (Total (N = 23)): 0 (0.0) n (%)
- Proteinuria, Any Grade (Total (N = 23)): 4 (17.4) n (%)
- Proteinuria, ≥ Grade 3 (Total (N = 23)): 0 (0.0) n (%)
- Renal and urinary disorders, Any Grade (Total (N = 23)): 5 (21.7) n (%)
- Renal and urinary disorders, ≥ Grade 3 (Total (N = 23)): 0 (0.0) n (%)
- Subjects with any TEAE (Total (N = 23)): 22 (95.7) n (%)
- Subjects with any drug-related TEAE (Total (N = 23)): 21 (91.3) n (%)
- Vomiting, Any Grade (Total (N = 23)): 8 (34.8) n (%)
- Vomiting, ≥ Grade 3 (Total (N = 23)): 2 (8.7) n (%)
- White blood cell count decreased, Any Grade (Total (N = 23)): 3 (13.0) n (%)
- White blood cell count decreased, ≥ Grade 3 (Total (N = 23)): 0 (0.0) n (%)
- grade 4 or 5 AEs (all dose levels): No grade 4 or 5 AEs were reported
- maximum tolerated dose (MTD) (patients, BID): 250 mg
